Two compounds from PMC10498496, “Design and Synthesis of Poly(2,2′-Bipyridyl) Ligands for Induction of Cell Death in Cancer Cells: Control of Anticancer Activity by Complexation/Decomplexation with Biorelevant Metal Cations” (Inorganic Chemistry, 2023) can be followed below.

Data set [1] concerns Jurkat cells. Kind of data set: Annexin V-FITC/PI staining by flow cytometry. It is filed as cell-based, human. As to conditions: 24 h. Here is the method:
The cell death in Jurkat cells induced by 1 and cisplatin (after the treatment for 24 h) was characterized by the flow cytometry of Jurkat cells after co-staining with Annexin V-FITC and PI to characterize the early and late apoptosis or necrosis. Each of the four areas in Figure 6 indicates Annexin V-FITC negative and PI signal positive (= necrotic cells) (top left square), Annexin V-FITC positive and PI positive (= late apoptosis) (top right square), Annexin V-FITC negative and PI negative (= alive cells) (bottom left square); and Annexin V-FITC positive and PI signal negative (= early apoptosis cells) (bottom right square), respectively. As summarized in Figure 7, the percentage of late apoptotic cells of the cells that had been treated with cisplatin increased from 15 to 75% at [cisplatin] = 12.5 to 50 μM and the percentage of late apoptotic cells of cells treated with 1 increased from 14 to 65% at = […] to 5 μM.
Figure 6 Jurkat cells were treated with no ligand (a) and with 1 (0.5–5 μM) (b,c) and cisplatin (12.5–50 μM) (d,e) and for 24 h, stained with Annexin V-FITC/PI, and observed by flow cytometry. The four areas in each graph show necrotic cells in the top left square (Annexin V-FITC^-/PI^+), late apoptotic cells in the top right square (Annexin V-FITC^+/PI^+), alive cells in the bottom left square (Annexin V-FITC^–/PI^–), and apoptotic cells in the bottom right square (Annexin V-FITC^+/PI^–). TEXT PRINTED IN THE PICTURE: (b) 1: 1.14 (0.5 μM); 14.7 (0.5 μM); 83.5 (0.5 μM); 0.7 (0.5 μM) | (c) 1: 0.82 (5 μM); 59 (5 μM); 38.5 (5 μM); 1.6 (5 μM) | (d) cisplatin: 4.19 (12.5 μM); 24.3 (12.5 μM); 71.3 (12.5 μM); 0.23 (12.5 μM) | (e) cisplatin: 0.94 (50 μM); 66.2 (50 μM); 32.6 (50 μM); 0.24 (50 μM) DOUBTS OF THE COPYIST ABOUT THIS PICTURE: The quadrant numbers are printed without a measure or unit. In each panel they are given in the order top left, top right, bottom left, bottom right. / Panel (a) Control (1.26, 3.82, 94.9, 0.072) is left out because it is not a substance.
Jurkat cells (1.0 × 10^5 cells/tube) were incubated in 10% FBS RPMI 1640 medium containing solution of 1 ([…]) and cisplatin (0–50 μM) for 24 h. The cells were then centrifuged at 3000 rpm for 5 min at 4 °C, then the supernatant was discarded, and the pellet was resuspended in 200 μL of PBS. The cells were then centrifuged at 3000 rpm for 5 min at 4 °C, then the supernatant was discarded, and the pellet was resuspended in 195 μL of 1 × binding buffer. A 195 μL aliquot of the sample solution was incubated with 5 μL of FITC-conjugated annexin V (Invitrogen) for 15 min at room temperature in the dark. […] 200 μL of the sample solution transferred to culture tube were analyzed by flow cytometry (Becton Dickinson) using Cell Quest Research Software (Becton Dickinson).
On the technique in general: A flow cytometer gives signals particle by particle.

The nature of data set [2]: UV/vis absorption titration, apparent stability constant with Zn^2+. The class given is binding. The settings on record: 37 °C, 1:1 complex. Here is the method: (§1) All reagents and solvents were purchased at the highest commercial quality and were used without further purification. Anhydrous DMF was obtained by distillation from calcium hydride. All aqueous solutions were prepared using deionized and distilled water. Melting points were measured using a Yanaco MP-J3 Micro Melting Point apparatus and are uncorrected. UV/vis absorption spectra were recorded on a JASCO V-630 spectrophotometer at 37 °C. The UV/vis absorption titrations of 1 with metal ions were carried out by addition of 10 mM solutions of Zn(NO3)2, NiSO4, Co(NO3)2, Fe(NO3)2, and Al(NO3)3 in H2O and 10 mM solutions of Cu(NO3)2 in DMSO. The apparent stability constants of metal–ligand complexes (Ks) were calculated by using the Bind Works 1.0 software provided by CSC (Calorimetry Science Corp.), an interactive PC software for the analysis of Binding Isotherms on Isothermal Titration Calorimeters (ITCs), to which the change in absorption values obtained by the UV/vis absorption titrations are input.[62] IR spectra were measured with a PerkinElmer FT-IR spectrophotometer (Spectrum 100) at room temperature. ^1H (300 and 400 MHz) NMR spectra were recorded on a JEOL Always 300 spectrometer and a JEOL Always 400 spectrometer, respectively. Luminescence imaging studies were performed using a fluorescent microscope (Biorevo, BZ-9000, Keyence). […]

Data set [3] is described as follows: UV/vis absorption titration, apparent stability constant with Co^2+. The class given is binding. As to conditions: ligand 30 μM, DMSO/30 mM HEPES pH 7.4 (7/3), 37 °C, approximate, assuming 1:1 complexation (1:2 complex).
Text: Although simple comparison of the stability of metal complexes is difficult due to the different units for 1:1 complexation (M^–1) and 1:2 complexation (M^–2), it is likely that the thermodynamic stability of Co^2+-(1)2 and Fe^2+-(1)2 complexes are similar to that of Zn^2+-1, Ni^2+-1, and Cu^2+-1 complexes.[40]
as §1, with “The UV/vis absorption titrations of 1 with metal ions were carried out by addition of 10 mM solutions of Zn(NO3)2, NiSO4, Co(NO3)2, Fe(NO3)2, and Al(NO3)3 in H2O and 10 mM solutions of Cu(NO3)2 in DMSO.” left out, “respectively.” for “respectively. Luminescence imaging studies were performed using a fluorescent microscope (Biorevo, BZ-9000, Keyence).”

Marks after values point to notes of the source that are not given here.

`c1ccc(-c2ccc(OCc3cc(COc4ccc(-c5ccccn5)nc4)cc(COc4ccc(-c5ccccn5)nc4)c3)cn2)nc1` [compound 1, 1,3,5-Tris(([2,2′-Bipyridin]-5-yloxy)methyl)benzene]: the “percentage of late apoptotic cells” value in data set [1] (0.25 μM (Figure 7, n = 3)) was 14%; in data set [1] (5 μM (Figure 7, n = 3)), 65%. Also, the Kd in data set [2] (DMSO/30 mM HEPES pH 7.4 (7/3), read-out: dissociation constant Kd (= 1/Ks) of Zn^2+ complex) is 280 ± 10 nM. Besides, the “apparent stability constant log Ks with Zn(NO3)2” value in data set [2] (ligand 30 μM, DMSO/30 mM HEPES pH 7.4, I = 0.1 (NaNO3) (7/3)) is 6.56 ± 0.02 (1:1 complex). Also, the “apparent stability constant log Ks with Co(NO3)2” value in data set [3] was >6 ^b (1:2 complex).

As to `N.N.[Cl][Pt][Cl]` [cisplatin, reference compound], the “percentage of late apoptotic cells” value in data set [1] (12.5 μM (Figure 7, n = 3)) amounted to 15%; in data set [1] (50 μM (Figure 7, n = 3)), 75%.
